Measured values published in the CheMixHub ionic liquid set.
± gives the uncertainty stated by the source.

Assay: xn = mol fraction of the nth substance listed

CC[n+]1ccn(C)c1.F[B-](F)(F)F + CC#N
Conditions | viscosity [mPa·s]
293.15 K, 100 kPa, x2 = 0.1787 | 25.2 ± 2.5
298.15 K, 100 kPa, x2 = 0.8301 | 1.14 ± 0.12
303.15 K, 101 kPa, x1 = 0.0999 | 0.71 ± 0.071
303.15 K, 101 kPa, x1 = 0.2 | 1.31 ± 0.13
303.15 K, 101 kPa, x1 = 0.2977 | 2.18 ± 0.22
303.15 K, 101 kPa, x1 = 0.3999 | 3.51 ± 0.35
303.15 K, 101 kPa, x1 = 0.4999 | 5.29 ± 0.53
303.15 K, 101 kPa, x1 = 0.5991 | 7.84 ± 0.79
303.15 K, 101 kPa, x1 = 0.7013 | 11 ± 1.1
303.15 K, 101 kPa, x1 = 0.8003 | 15.3 ± 1.5
303.15 K, 101 kPa, x1 = 0.9009 | 21 ± 2.1
303.15 K, 101 kPa, x1 = 1 | 28 ± 2.8
313.15 K, 100 kPa, x2 = 0.2803 | 10.5 ± 1.1
313.15 K, 100 kPa, x2 = 0.3682 | 7.5 ± 0.75
313.15 K, 101 kPa, x1 = 0.0999 | 0.638 ± 0.064
313.15 K, 101 kPa, x1 = 0.2 | 1.15 ± 0.12
313.15 K, 101 kPa, x1 = 0.2977 | 1.89 ± 0.19
313.15 K, 101 kPa, x1 = 0.3999 | 2.95 ± 0.3
313.15 K, 101 kPa, x1 = 0.4999 | 4.34 ± 0.44
313.15 K, 101 kPa, x1 = 0.5991 | 6.21 ± 0.62
313.15 K, 101 kPa, x1 = 0.7013 | 8.64 ± 0.87
313.15 K, 101 kPa, x1 = 0.8003 | 11.7 ± 1.2
313.15 K, 101 kPa, x1 = 0.9009 | 15.6 ± 1.6
313.15 K, 101 kPa, x1 = 1 | 20.4 ± 2.1
323.15 K, 100 kPa, x2 = 0 | 18.6 ± 1.9
323.15 K, 100 kPa, x2 = 0.2803 | 8.36 ± 0.84
323.15 K, 100 kPa, x2 = 0.3682 | 6.1 ± 0.61
323.15 K, 100 kPa, x2 = 0.7116 | 1.6 ± 0.16
323.15 K, 101 kPa, x1 = 0.0999 | 0.575 ± 0.058
323.15 K, 101 kPa, x1 = 0.2 | 1.02 ± 0.1
323.15 K, 101 kPa, x1 = 0.2977 | 1.67 ± 0.17
323.15 K, 101 kPa, x1 = 0.3999 | 2.52 ± 0.25
323.15 K, 101 kPa, x1 = 0.4999 | 3.64 ± 0.36
323.15 K, 101 kPa, x1 = 0.5991 | 5.11 ± 0.51
323.15 K, 101 kPa, x1 = 0.7013 | 6.95 ± 0.7
323.15 K, 101 kPa, x1 = 0.8003 | 9.17 ± 0.92
323.15 K, 101 kPa, x1 = 0.9009 | 12 ± 1.2
323.15 K, 101 kPa, x1 = 1 | 15.3 ± 1.5
333.15 K, 100 kPa, x2 = 0.2803 | 6.82 ± 0.69
333.15 K, 100 kPa, x2 = 0.7116 | 1.41 ± 0.14
333.15 K, 101 kPa, x1 = 0.0999 | 0.522 ± 0.052
333.15 K, 101 kPa, x1 = 0.2 | 0.917 ± 0.092
333.15 K, 101 kPa, x1 = 0.2977 | 1.48 ± 0.15
333.15 K, 101 kPa, x1 = 0.3999 | 2.2 ± 0.22
333.15 K, 101 kPa, x1 = 0.4999 | 3.13 ± 0.31
333.15 K, 101 kPa, x1 = 0.5991 | 4.34 ± 0.44
333.15 K, 101 kPa, x1 = 0.7013 | 5.76 ± 0.58
333.15 K, 101 kPa, x1 = 0.8003 | 7.47 ± 0.75
333.15 K, 101 kPa, x1 = 0.9009 | 9.51 ± 0.96
333.15 K, 101 kPa, x1 = 1 | 12.1 ± 1.2
343.15 K, 100 kPa, x2 = 0.3682 | 4.28 ± 0.43
343.15 K, 100 kPa, x2 = 0.7116 | 1.26 ± 0.13
343.15 K, 100 kPa, x2 = 0.8301 | 0.719 ± 0.072

CCS(=O)(=O)[O-].[NH4+] + CC(=O)[O-].CC[n+]1ccn(C)c1
101 kPa
Conditions | electrical conductivity [S/m] | viscosity [mPa·s]
313.15 K, x1 = 0.1701 | 0.38 ± 0.0076 | 112.1 ± 7.4
318.15 K, x1 = 0.05 | 0.649 ± 0.013 | 51.8 ± 3.4
323.15 K, x1 = 0.0999 | 0.669 ± 0.013 | 50.7 ± 3.3
323.15 K, x1 = 0.1701 | 0.588 ± 0.012 | 65.1 ± 4.2

CC[n+]1ccn(C)c1.O=S(=O)([N-]S(=O)(=O)C(F)(F)F)C(F)(F)F + c1ccccc1
100 kPa
Conditions | viscosity [mPa·s]
298.15 K, x2 = 0.135 | 25.2 ± 1.3
298.15 K, x2 = 0.339 | 15.64 ± 0.84
318.15 K, x2 = 0.471 | 6.8 ± 0.4
328.15 K, x2 = 0 | 13.68 ± 0.74
328.15 K, x2 = 0.339 | 7.26 ± 0.42

CC(=O)[O-].CCC[N+]1(C)CCCC1 + CC#N
298 K, 101 kPa
Conditions | electrical conductivity [S/m]
x2 = 0.75 | 3.18 ± 0.06
x2 = 0.775 | 3.51 ± 0.07
x2 = 0.799 | 3.72 ± 0.07
x2 = 0.825 | 3.86 ± 0.08
x2 = 0.849 | 3.9 ± 0.08
x2 = 0.875 | 3.92 ± 0.08
x2 = 0.9 | 3.85 ± 0.08
x2 = 0.911 | 3.75 ± 0.08
x2 = 0.921 | 3.63 ± 0.07
x2 = 0.94 | 3.35 ± 0.07

O=C([O-])C1=NN(c2ccc(S(=O)(=O)[O-])cc2)C(=O)C1N=Nc1ccc(S(=O)(=O)[O-])cc1.[Na+].[Na+].[Na+] (centres undefined) + C[N+](C)(C)Cc1ccccc1.[Cl-] + O
electrical conductivity [S/m], 101.3 kPa, frequency 0.001 MHz
Conditions | 298.15 K | 308.15 K | 318.15 K
x1 = 0.0001802, x2 = 1.802e-05 | 0.132 ± 0.014 | 0.158 ± 0.017 | 0.197 ± 0.021
x1 = 0.0001803, x2 = 5.405e-05 | 0.142 ± 0.015 | 0.177 ± 0.018 | 0.213 ± 0.022
x1 = 0.0001803, x2 = 9.008e-05 | 0.168 ± 0.017 | 0.187 ± 0.019 | 0.228 ± 0.023
x1 = 0.0004504, x2 = 1.801e-05 | 0.231 ± 0.023 | 0.276 ± 0.028 | 0.355 ± 0.036
x1 = 0.0004505, x2 = 5.403e-05 | 0.254 ± 0.026 | 0.317 ± 0.032 | 0.388 ± 0.039
x1 = 0.0004507, x2 = 9.005e-05 | 0.303 ± 0.031 | 0.331 ± 0.033 | 0.413 ± 0.042
x1 = 0.0007204, x2 = 1.801e-05 | 0.331 ± 0.033 | 0.392 ± 0.04 | 0.498 ± 0.05
x1 = 0.0007206, x2 = 5.402e-05 | 0.359 ± 0.036 | 0.447 ± 0.045 | 0.535 ± 0.054
x1 = 0.0007209, x2 = 9.003e-05 | 0.419 ± 0.043 | 0.477 ± 0.048 | 0.558 ± 0.056
x1 = 0.0009903, x2 = 1.8e-05 | 0.421 ± 0.042 | 0.512 ± 0.052 | 0.641 ± 0.064
x1 = 0.0009906, x2 = 5.4e-05 | 0.463 ± 0.047 | 0.588 ± 0.059 | 0.677 ± 0.068
x1 = 0.0009909, x2 = 9e-05 | 0.57 ± 0.058 | 0.614 ± 0.062 | 0.723 ± 0.072
x1 = 0.00126, x2 = 1.8e-05 | 0.519 ± 0.052 | 0.638 ± 0.064 | 0.777 ± 0.078
x1 = 0.00126, x2 = 5.399e-05 | 0.583 ± 0.059 | 0.716 ± 0.072 | 0.826 ± 0.083
x1 = 0.001261, x2 = 8.998e-05 | 0.684 ± 0.069 | 0.739 ± 0.074 | 0.863 ± 0.086
x1 = 0.00153, x2 = 1.799e-05 | 0.641 ± 0.065 | 0.753 ± 0.076 | 0.915 ± 0.092
x1 = 0.00153, x2 = 5.397e-05 | 0.705 ± 0.071 | 0.841 ± 0.084 | 0.972 ± 0.097
x1 = 0.001531, x2 = 8.995e-05 | 0.812 ± 0.082 | 0.88 ± 0.088 | 1.01 ± 0.1

viscosity [mPa·s], 101.3 kPa
Conditions | 298.15 K | 308.15 K | 318.15 K
x1 = 0.0001802, x2 = 1.802e-05 | 0.905 ± 0.045 | 0.747 ± 0.044 | 0.629 ± 0.044
x1 = 0.0001803, x2 = 5.405e-05 | 0.923 ± 0.045 | 0.769 ± 0.044 | 0.646 ± 0.044
x1 = 0.0001803, x2 = 9.008e-05 | 0.941 ± 0.045 | 0.789 ± 0.045 | 0.666 ± 0.044
x1 = 0.0004504, x2 = 1.801e-05 | 0.923 ± 0.045 | 0.764 ± 0.044 | 0.644 ± 0.044
x1 = 0.0004505, x2 = 5.403e-05 | 0.944 ± 0.045 | 0.788 ± 0.045 | 0.664 ± 0.044
x1 = 0.0004507, x2 = 9.005e-05 | 0.962 ± 0.045 | 0.809 ± 0.045 | 0.685 ± 0.044
x1 = 0.0007204, x2 = 1.801e-05 | 0.938 ± 0.045 | 0.778 ± 0.044 | 0.658 ± 0.044
x1 = 0.0007206, x2 = 5.402e-05 | 0.962 ± 0.045 | 0.803 ± 0.045 | 0.679 ± 0.044
x1 = 0.0007209, x2 = 9.003e-05 | 0.983 ± 0.045 | 0.826 ± 0.045 | 0.701 ± 0.044
x1 = 0.0009903, x2 = 1.8e-05 | 0.952 ± 0.045 | 0.791 ± 0.044 | 0.67 ± 0.044
x1 = 0.0009906, x2 = 5.4e-05 | 0.977 ± 0.045 | 0.818 ± 0.045 | 0.693 ± 0.044
x1 = 0.0009909, x2 = 9e-05 | 1 ± 0.045 | 0.842 ± 0.045 | 0.717 ± 0.044
x1 = 0.00126, x2 = 1.8e-05 | 0.964 ± 0.045 | 0.803 ± 0.045 | 0.681 ± 0.044
x1 = 0.00126, x2 = 5.399e-05 | 0.992 ± 0.045 | 0.832 ± 0.045 | 0.707 ± 0.044
x1 = 0.001261, x2 = 8.998e-05 | 1.015 ± 0.045 | 0.858 ± 0.045 | 0.731 ± 0.044
x1 = 0.00153, x2 = 1.799e-05 | 0.977 ± 0.045 | 0.815 ± 0.045 | 0.693 ± 0.044
x1 = 0.00153, x2 = 5.397e-05 | 1.007 ± 0.045 | 0.847 ± 0.045 | 0.72 ± 0.044
x1 = 0.001531, x2 = 8.995e-05 | 1.032 ± 0.045 | 0.873 ± 0.045 | 0.746 ± 0.044
